Measured values from patent publication US20150005387A1, “COMPOSITION CONTAINING AGMATINE, AND USES THEREOF IN PREPARING DRUGS OR NEUTRACEUTICAL SUBSTANCES” (priority 2012, published 2015).

Key:
Weight of the spleen = type: in vivo, male C57BL/6 mice
Description: The animals are euthanized, then the spleen is removed from the mice and weighed using a precision balance. In addition to the ten groups of mice that each received a different diet, as described above, an eleventh group of animals was included for this study. These were male C57BL/6 mice having the same basic physiological characteristics as the mice in the other ten groups but that had not received grafts of Lewis carcinoma cells.

[1] = system: putrescine, spermidine and spermine; experiment: Tumour levels of polyamines; type: in vivo, male C57BL/6 mice; conditions: for decrease of the tumour level of putrescine / decrease of the tumour level of spermidine / decrease of the tumour level of spermine: relative to diet containing a normal level of polyamines
Protocol: The level of polyamines is measured in the tumour formed at the site of inoculation of the Lewis carcinoma cells. […] After incubation for at least 16 h at 4° C., the cells are centrifuged for 15 minutes at 3500 rpm at 4° C. The supernatant that contains the polyamines is removed and is used for determination of the polyamines. The polyamines are determined by the method described previously (Seiler N et al., 1996, Cancer Research, 56, 5624-5630). The three principal polyamines present in mammals (putrescine, spermidine and spermine) were determined for the ten groups of mice that had each received different nutrition. The results are illustrated in FIG. 3.

[2] = system: Lewis lung carcinoma (3LL); experiment: Pulmonary metastatic invasion; type: in vivo, male C57BL/6 mice; conditions: for additional benefit in terms of metastatic process: added to the diet depleted of cadaverine, putrescine, spermidine and spermine
Protocol: Cells from Lewis lung carcinoma (3LL) were obtained from the ECACC (European Collection of Cell Cultures) and grafted by intramuscular injection in the hind paws of male C57BL/6 mice by the method described previously (Hergueux J. et al., Exp. […] The grafted mice are distributed randomly in the cages in groups of 5 individuals. […] The metastatic dissemination is expressed as percentage invasion relative to the total surface area of the lungs. The percentage metastatic invasion was measured in the mice of the ten groups described above, each having received different nutrition.

[3] = system: Lewis lung carcinoma (3LL); experiment: Tumour growth (tumour volume), Example 1; type: in vivo, male C57BL/6 mice
Protocol: Male C57BL/6 mice, aged 9 weeks and weighing 20 g (Janvier breeding station, Le Genest St Isle, France), are acclimatized for 1 week before the start of the study. Handling of the animals is carried out in accordance with the ethical directives for experiments and according to the recommendations of the European Biomedical Research Association. Cells from Lewis lung carcinoma (3LL) were obtained from the ECACC (European Collection of Cell Cultures) and grafted by intramuscular injection in the hind paws of male C57BL/6 mice by the method described previously (Hergueux J. et al., Exp. […] The grafted mice are distributed randomly in the cages in groups of 5 individuals. The tumour becomes palpable some days after grafting took place. […] Cancer, 1984, 34(2), 277-281).

[4] = 2.67 g/day for 14 days, patients with a herniated disc; cited from earlier work
[5] = system: Lewis lung carcinoma (3LL); experiment: Tumour growth (tumour volume) in combination with an anticancer drug, Example 2; type: in vivo, male C57BL/6 mice
Protocol: Male C57BL/6 mice, aged 9 weeks and weighing 20 g (Janvier breeding station, Le Genest St Isle, France), are acclimatized for 1 week before the start of the study. Handling of the animals is carried out in accordance with the ethical directives for experiments and according to the recommendations of the European Biomedical Research Association.
After 20 days, the tumour cells are collected and dispersed in PBS, counted and diluted to reach 0.5×10^6 cells/100 μL, before being grafted in the right hind paw of the mice. The grafted mice are distributed randomly in the cages in groups of 5 individuals.
The tumour becomes palpable some days after the grafting took place. The animals are sacrificed 19 days after grafting the tumour cells.
The treatment is set up 6 days after grafting, when the tumour is palpable, and is administered 7 days a week and comprises the intake ad libitum of the normal nutrition or of the test solutes as well as drinking water.
The animal model (C57BL/6 mouse) and the tumour model (Lewis carcinoma) are described above. The mice are grafted with 0.5×10^6 tumour cells, by intramuscular injection in one of the hind paws.

[6] = intrathecal injection, diabetic rats; cited from earlier work
[7] = animals injected with 0.3 nmol; cited from earlier work
[8] = system: cell lines from hepatocarcinomas; conditions: in vitro, 10 μm to 1 mM; cited from earlier work
ODC = molecular target: T1, ODC (Homo sapiens, UniProt P11926); conditions: renal cells; cited from earlier work
T1 sequence (P11926 1-461): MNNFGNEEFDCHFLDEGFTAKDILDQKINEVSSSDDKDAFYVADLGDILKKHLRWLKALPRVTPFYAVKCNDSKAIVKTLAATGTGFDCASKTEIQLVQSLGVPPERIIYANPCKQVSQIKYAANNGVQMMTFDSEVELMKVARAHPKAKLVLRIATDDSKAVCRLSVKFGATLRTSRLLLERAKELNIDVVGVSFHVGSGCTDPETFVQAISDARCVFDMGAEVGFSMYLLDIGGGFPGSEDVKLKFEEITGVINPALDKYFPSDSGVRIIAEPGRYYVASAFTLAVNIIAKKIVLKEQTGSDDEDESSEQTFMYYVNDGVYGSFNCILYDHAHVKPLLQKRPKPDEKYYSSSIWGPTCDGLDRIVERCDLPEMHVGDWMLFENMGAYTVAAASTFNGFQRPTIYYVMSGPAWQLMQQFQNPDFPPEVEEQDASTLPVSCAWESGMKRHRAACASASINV

noradrenaline release = conditions: intravenous injection, 1 to 100 mg/kg; cited from earlier work
[9] = tumour, neomycin based on a diet depleted of cadaverine, putrescine, spermidine and spermine
[10] = cyclophosphamide (CY) 9 mg·kg^−1·week^−1
[11] = cyclophosphamide (CY) 90 mg·kg^−1·week^−1
[12] = depleted diet + agmatine 18.4 mg/kg of food
[13] = depleted diet + agmatine 184 mg/kg of food
[14] = depleted diet + agmatine 1840 mg/kg of food

**Q.** Which “mean value of the weight of the spleen” value (Weight of the spleen; grafted mice, 19 days after grafting, no agmatine, neomycin where given 2 mg/ml in drinking water) does the source give for neomycin here?
**A.** 151 mg

**Q.** And the “effect of neomycin on the weight of the spleen” value (Weight of the spleen; groups 2, 4 and 6 (normal diet; depleted diet; depleted diet + agmatine 18.4 mg/kg of food))?
**A.** decrease in the weight of the spleen

**Q.** What about the “effect of neomycin on the weight of the spleen” value (Weight of the spleen; groups 8 and 10 (depleted diet + agmatine 184 and 1840 mg/kg of food)) of the same molecule?
**A.** increase in the weight of the spleen

**Q.** What about the “decrease in the level of putrescine” value ([1]; tumour, based on a normal diet) of the same molecule?
**A.** 17%

**Q.** What about the “effect on the level of spermidine” value ([1]; tumour, based on a normal diet) of the same molecule?
**A.** no effect

**Q.** And the “increase in the level of spermine” value ([1]; tumour, based on a normal diet)?
**A.** 7%

**Q.** What about the “decrease in the level of spermine” value [1, 9] of the same molecule?
**A.** 5%

**Q.** What about the “increase in the level of putrescine” value [1, 9] of the same molecule?
**A.** 17%

**Q.** What about the “increase in the level of spermidine” value [1, 9] of the same molecule?
**A.** 24%

**Q.** And the “mean value of pulmonary metastatic invasion” value ([2]; 19 days after grafting, no agmatine, neomycin where given 2 mg/ml in drinking water)?
**A.** 11%

**Q.** What about the “additional benefit in terms of metastatic process” value [2] of the same molecule?
**A.** does not lead to any additional benefit

**Q.** What about the “decrease in metastatic invasion” value ([2]; relative to mice on a diet containing a normal level of polyamines without antibiotic) of the same molecule?
**A.** 60%

**Q.** What about the “evolution of tumour volume” value ([3]; neomycin 2 mg/ml in drinking water, diet containing a normal level of polyamines) of the same molecule?
**A.** no effect

**Q.** Which perception of pain [4] does the source give for N=C(N)NCCCCN.O=S(=O)(O)O [agmatine sulphate] here?
**A.** attenuated perception of pain

**Q.** For O=P1(N(CCCl)CCCl)NCCCO1 (stereo not drawn) [cyclophosphamide], which “Monitoring of tumour volume (in cm^3) D0” value [5, 10] is on record?
**A.** 0 cm^3

**Q.** What about the “Monitoring of tumour volume (in cm^3) D0” value [5, 11] of the same molecule?
**A.** 0 cm^3

**Q.** And the “Monitoring of tumour volume (in cm^3) D2” value [5, 10]?
**A.** 0.08 cm^3

**Q.** What about the “Monitoring of tumour volume (in cm^3) D2” value [5, 11] of the same molecule?
**A.** 0.02 cm^3

**Q.** What about the “Monitoring of tumour volume (in cm^3) D5” value [5, 10] of the same molecule?
**A.** 0.2 cm^3

**Q.** And the “Monitoring of tumour volume (in cm^3) D5” value [5, 11]?
**A.** 0.05 cm^3

**Q.** And the “Monitoring of tumour volume (in cm^3) D8” value [5, 10]?
**A.** 0.296 cm^3

**Q.** And the “Monitoring of tumour volume (in cm^3) D8” value [5, 11]?
**A.** 0.074 cm^3

**Q.** What about the “Monitoring of tumour volume (in cm^3) D10” value [5, 10] of the same molecule?
**A.** 0.64 cm^3

**Q.** What about the “Monitoring of tumour volume (in cm^3) D10” value [5, 11] of the same molecule?
**A.** 0.16 cm^3

**Q.** And the “Monitoring of tumour volume (in cm^3) D12” value [5, 10]?
**A.** 1.2 cm^3

**Q.** And the “Monitoring of tumour volume (in cm^3) D12” value [5, 11]?
**A.** 0.3 cm^3

**Q.** And the “Monitoring of tumour volume (in cm^3) D15” value [5, 10]?
**A.** 2.64 cm^3

**Q.** What about the “Monitoring of tumour volume (in cm^3) D15” value [5, 11] of the same molecule?
**A.** 0.66 cm^3

**Q.** What about the “Monitoring of tumour volume (in cm^3) D18” value [5, 10] of the same molecule?
**A.** 3.0 cm^3

**Q.** And the “Tumour volume on D18 (% relative to UAR)” value [5, 10]?
**A.** −20%

**Q.** What about the “Monitoring of tumour volume (in cm^3) D18” value [5, 11] of the same molecule?
**A.** 0.7 cm^3

**Q.** What about the “Tumour volume on D18 (% relative to UAR)” value [5, 11] of the same molecule?
**A.** −81%

**Q.** What does the source list for N=C(N)NCCCCN [agmatine]?
**A.** additional effect on the weight of the spleen (Weight of the spleen; agmatine added to the depleted diet, regardless of the dose): no additional effect; tactile or thermal allodynia and hyperalgesia [6]: suppresses tactile or thermal allodynia as well as hyperalgesia; decrease of the tumour level of putrescine [1, 12]: 35%; decrease of the tumour level of spermidine [1, 12]: 10%; decrease of the tumour level of spermine [1, 12]: 31%; decrease of the tumour level of putrescine [1, 13]: 14%; decrease of the tumour level of spermidine [1, 13]: 12%; decrease of the tumour level of spermine [1, 13]: 24%; decrease of the tumour level of putrescine [1, 14]: 50%; decrease of the tumour level of spermidine [1, 14]: 10%; decrease of the tumour level of spermine [1, 14]: 16%; perception of pain (allodynia) [7]: anti-allodynic effect; cell cycle [8]: stopping of the cancer cells in phase G2/M of the cell cycle; additional benefit in terms of metastatic process [2]: does not appear to bring any additional benefit; inhibition of ODC / synthesis of polyamines (ODC): dose-dependent inhibition of ODC; blood pressure (noradrenaline release): decrease in blood pressure; increase of the antitumour effect of the diet depleted of cadaverine, putrescine, spermidine and spermine ([3]; agmatine 18.4 mg/kg of food): 8%; increase of the antitumour effect of the diet depleted of cadaverine, putrescine, spermidine and spermine ([3]; agmatine 184 mg/kg of food): 3%; increase of the antitumour effect of the diet depleted of cadaverine, putrescine, spermidine and spermine ([3]; agmatine 1840 mg/kg of food): 13%
